In ChEMBL document CHEMBL1126350, “Phosphonoethylphenylalanine derivatives as novel antagonists of non-NMDA ionotropic glutamate receptors” (Bioorg Med Chem Lett, 1992):

Tests used:
Assay type in all cases: functional
[1] = system: Mus musculus; assay: Compound was tested for its ability to inhibit pentylenetetrazole-induced seizures in male CF-1 mice by i.c.v. administration
[2] = organism: Rattus norvegicus; assay: Inhibition of kainic acid (KA)-induced currents in rat brain mRNA-injected xenopus oocytes
[3] = organism: Rattus norvegicus; assay: The compound was tested for its ability to inhibit AMPA-induced currents in rat brain mRNA-injected xenopus oocytes
[4] = organism: Rattus norvegicus; assay: Compound was tested against kainic acid-induced neuronal damage in rat striatum, as assessed by preventing reduction in glutamate decarboxylase GAD activity; design: scale not given: the % may be the effect or the level left
[5] = organism: Rattus norvegicus; assay: Compound was tested against kainic acid-induced neuronal damage in rat striatum, as assessed by preventing reduction in choline acetyltransferase (ChAT) activity; design: scale not given: the % may be the effect or the level left
[6] = system: Mus musculus; assay: Compound was tested for its ability to inhibit pentylenetetrazole-induced seizures in male CF-1 mice by i.p. administration; conditions: ip

Structure (SMILES) | Ki [2] [µM] | Ki [3] [µM] | other results
O=C(O)C1CN(CCCP(=O)(O)O)CCN1 (stereo not given) |  |  | ED50 [1]: 0.15 nmol
C=C(C)[C@H]1CN[C@H](C(=O)O)[C@H]1CC(=O)O [KAINIC ACID] |  |  | Activity [4]: 45%; Activity [5]: 32%
NC(Cc1cc(C(F)(F)F)ccc1CCP(=O)(O)O)C(=O)O (stereo not given) | 10 |  | 
NC(Cc1cccc(-c2ccccc2)c1CCP(=O)(O)O)C(=O)O (stereo not given) | 83 |  | 
COc1ccc(CCP(=O)(O)O)c(CC(N)C(=O)O)c1 (stereo not given) | 67 |  | 
Cc1cc(C)c(CCP(=O)(O)O)c(CC(N)C(=O)O)c1 (stereo not given) | 12 | 39 | 
CC(C)(C)c1ccc(CCP(=O)(O)O)c(CC(N)C(=O)O)c1 (stereo not given) | 29 |  | 
Cc1cccc(CCP(=O)(O)O)c1CC(N)C(=O)O (stereo not given) | > 100 |  | 
Cc1ccc(CCP(=O)(O)O)c(C[C@H](N)C(=O)O)c1 |  |  | ED50 [6]: 124 mg/kg; ED50 [1]: 0.58 nmol
Cc1cccc(CC(N)C(=O)O)c1CCP(=O)(O)O (stereo not given) | > 100 |  | 
Cc1cc(C)c(CCP(=O)(O)O)c(C[C@H](N)C(=O)O)c1 |  |  | ED50 [6]: 111 mg/kg; ED50 [1]: 0.3 nmol
NC(Cc1cc(C2CCCCC2)ccc1CCP(=O)(O)O)C(=O)O (stereo not given) | 139 |  | 
NC(Cc1cc(-c2ccccc2)ccc1CCP(=O)(O)O)C(=O)O (stereo not given) | 76 |  | 

Continued, in another order:

Ki [2] [µM] | Ki [3] [µM] | Structure (SMILES) | other results
11 | 13 | Cc1ccc(CCP(=O)(O)O)c(CC(N)C(=O)O)c1 (stereo not given) | 
10 | 61 | NC(Cc1cc(Br)ccc1CCP(=O)(O)O)C(=O)O (stereo not given) | 
15 | 48 | NC(Cc1cc(Cl)ccc1CCP(=O)(O)O)C(=O)O (stereo not given) | 
> 100 |  | Cc1ccc(CC(N)C(=O)O)c(CCP(=O)(O)O)c1 (stereo not given) | 
3.6 | 16 | NC(Cc1cc(I)ccc1CCP(=O)(O)O)C(=O)O (stereo not given) | 
68 | 167 | NC(Cc1cc(F)ccc1CCP(=O)(O)O)C(=O)O (stereo not given) | 
17 | 50 | CCc1ccc(CCP(=O)(O)O)c(CC(N)C(=O)O)c1 (stereo not given) | 
